5 compounds from PMC4076079, “Selective inhibitors of a PAF biosynthetic enzyme lysophosphatidylcholine acyltransferase 2” (Journal of Lipid Research, 2014) can be followed below.

In this assay the test system is RAW-mLPCAT2 cells. Description: cell-based assay: A23187-induced PAF production, PAF and lyso-PAF by LC-MS/MS. Also noted: species or system mouse. The conditions noted are these: for pIC50: Mus musculus. How it is done:
RAW-mLPCAT2 cells and peritoneal macrophages were seeded in 24-well plates (4 × 10^6 cells/well) for 24 or 2 h, respectively, before treatment. RAW-mLPCAT2 cells were stimulated with 5 μM A23187 for 5 min after a 1 h treatment with the compounds. Peritoneal macrophages were preincubated with 100 ng/ml LPS for 18 h, treated with the compounds for 1 h, and stimulated with 5 μM A23187 for 5 min. To analyze cellular PAF levels, lipids were extracted with 500 μl methanol containing d4-PAF and d4-lyso-PAF as internal standards. Each sample was submitted to solid phase extraction using an Oasis HLB 96-well cartridge cluster (Waters), and PAF and lyso-PAF were measured by LC-MS/MS as previously described ([13]).
Chromatography was performed using an Acquity™ Ultra-performance LC system (Waters) coupled to a TSQ Vantage triple stage quadrupole mass spectrometer (Thermo Scientific) with a HESI-II electrospray ionization source ([13]). Phospholipids were separated on BEH C8 columns (1.7 μm, 2.1 × 30 mm or 1 × 100 mm; Waters) for the analysis of assay products or the composition of cellular PAF and lyso-PAF, respectively. The mobile phase contained 20 mM aqueous ammonium bicarbonate and acetonitrile. The extracts from peritoneal macrophages were separated on a Kinetex C8 column (1.7 μm, 2.1 × 100 mm; Phenomenex, Torrance, CA) by a gradient elution with 0.05% formic acid-water and acetonitrile, using the Nexera X2 system and LCMS-8080 mass spectrometer (Shimadzu, Kyoto, Japan) ([13]). Lyso-PAF, d4-PAF, and d31-DPPC were identified by the choline fragment (m/z 184) as a product ion of selected reaction monitoring in the positive ion mode. Nonlabeled PAF and d4-16:0/20:4 alkyl-PC were determined by fatty acid anions of sn-2 composition (m/z 59 and 303, respectively) in the negative ion mode. Mass spectra were processed using the Xcalibur 2.0 (Thermo Scientific) or LabSolutions 5.50 (Shimadzu) software. Signal intensities were determined relative to the internal standard or as the percentage of the positive control. […]
Step 9 screening: cell-based assay
RAW-mLPCAT2 cells were treated with compounds for 1 h and analyzed after 5 min stimulation with A23187. The assays were performed with 0, 0.2, 0.6, 20, and 50 or 60 µM of compound. PAF concentration was measured by LC-MS/MS.
The data were normalized to each positive control (100% activation). Percentage inhibition or IC50 were determined in each screening step. To assess screening quality, the percentage coefficient of variance and the Z’ factor was calculated for each plate or each assay as described previously (2).

[1] abbreviates: 1 h pretreatment, 5 μM A23187 for 5 min.
Setting [2] is: screening step 9 (n = 2), 1 h compound, 5 min A23187, read-out: IC50, A23187-induced PAF production.

pIC50: −log10 of the molar value. Like-named read-outs stand apart in the source and are kept apart here.

Turning to `CCCCOC(=O)c1ccc(N2C(=O)C(Cl)=C(Cl)C2=O)cc1` [TSI-11, butyl 4-(3,4-dichloro-2,5-dioxopyrrol-1-yl)benzoate], under setting [1], the “A23187-induced PAF production” value was “suppressed” and the lyso-PAF level result is “not changed”.
With `O=C1C(Cl)=C(N2CCOCC2)C(=O)N1c1ccc(Oc2ccccc2)cc1` [TSI-02, 3-chloro-4-morpholin-4-yl-1-(4-phenoxyphenyl)pyrrole-2,5-dione], under setting [2], the pIC50 (usually the negative decadic logarithm of the IC50, by convention in mol/L) was 4.63.
On to `CC(C)OC(=O)c1ccc(N2C(=O)C(Cl)=C(Nc3ccccc3O)C2=O)cc1` [TSI-07], for which, under setting [1], the “A23187-induced PAF production” value was “suppressed” and the lyso-PAF level entry is recorded as “decreased”.
With `CC(C)OC(=O)c1ccc(N2C(=O)C(Cl)=C(Cl)C2=O)cc1` [TSI-01, propan-2-yl 4-(3,4-dichloro-2,5-dioxopyrrol-1-yl)benzoate], under setting [1], the “A23187-induced PAF production” value is recorded as “suppressed” and the lyso-PAF level entry is listed as “increased”. Also, the pIC50 (1 h pretreatment, 5 μM A23187 for 5 min, Fig. 4, three independent experiments, read-out: IC50, inhibition of PAF production) was 4.41. Further, the pIC50 under setting [2] is 4.55.
Turning to `CCCOC(=O)c1ccc(N2C(=O)C(Cl)=C(Cl)C2=O)cc1` [TSI-10], under setting [1], the “A23187-induced PAF production” value is given as “suppressed” and the lyso-PAF level entry is reported as “increased”.
